In data set [1] the test system is MC3T3-E1. Briefly: Activation of alkaline phosphatase secretion in mouse MC3T3-E1 cells at >= 30 uM using 4-nitrophenyl phosphate as substrate after 6 days. Type of data set: cell-based. Particulars: dose microM >=30, time 6.0 day.
Data set [2] deals with MC3T3-E1. As to the kind of experiment: Osteogenic activity in mouse MC3T3-E1 cells assessed as mineralization at >= 30 uM after 6 days by Alizarin Red S staining-based method. Type of data set: functional, cell-based. Particulars: dose microM >=30, time 6.0 day.
Data set [3] deals with MC3T3-E1. As to the kind of experiment: Osteogenic activity in mouse MC3T3-E1 cells assessed as mineralization at 30 uM after 6 days by Alizarin Red S staining-based method. The class given is functional, cell-based. Particulars: time 6.0 day.
Data set [4] has as its system MC3T3-E1. Briefly: Activation of alkaline phosphatase secretion in mouse MC3T3-E1 cells at 30 uM using 4-nitrophenyl phosphate as substrate after 6 days. The class given is cell-based. Particulars: time 6.0 day.
Data set [5] concerns MC3T3-E1. Briefly: Cytotoxicity against mouse MC3T3-E1 cells assessed as reduction in cell viability at >= 30 uM after 6 days by MTT assay. Type of data set: cell-based. To be noted: mc3t3-e1, 144 h, time 6 day. A general note: Tetrazolium assays rely on reduction of a dye to a coloured formazan, in cell work by metabolically active cells.
Data set [6] has as its system MC3T3-E1. As to the kind of experiment: Osteogenic activity in mouse MC3T3-E1 cells assessed as mineralization at 15 uM after 6 days by Alizarin Red S staining-based method. Type of data set: functional, cell-based. To be noted: time 6.0 day.
For data set [7], the system named is MC3T3-E1. Briefly: Osteogenic activity in mouse MC3T3-E1 cells assessed as mineralization at 7.5 uM after 6 days by Alizarin Red S staining-based method. Type of data set: functional, cell-based. Particulars: time 6.0 day.
For data set [8], the system named is MC3T3-E1. Briefly: Activation of alkaline phosphatase secretion in mouse MC3T3-E1 cells at 15 uM using 4-nitrophenyl phosphate as substrate after 6 days. Type of data set: cell-based. To be noted: filed as activator, time 6.0 day.
Data set [9] concerns MC3T3-E1. As to the kind of experiment: Cytotoxicity against mouse MC3T3-E1 cells assessed as reduction in cell viability at 30 uM after 6 days by MTT assay. The class given is cell-based. Particulars: mc3t3-e1, 144 h, time 6 day.

The source of these data is ChEMBL document CHEMBL4665750, “Structure-Activity Relationship Study of Majusculamides A and B and Their Analogues on Osteogenic Activity” (J Nat Prod, 2020).

Active and inactive are the calls of the source. No cut-off for these calls is given here.

For the compound `CCCCCCCC(=O)[C@@H](C)C(=O)N(C)[C@H](Cc1ccccc1)C(=O)N(C)[C@H](C(N)=O)C(C)C`, the result with MC3T3-E1 [1] (filed as activator) was Active. Moreover, the result in the data set on MC3T3-E1 [2] was inactive.

Regarding `CCCCCCC[C@H](O)[C@@H](C)C(=O)N(C)[C@H](Cc1ccc(OC)cc1)C(=O)N(C)[C@H](C(N)=O)C(C)C`, the result in the data set with MC3T3-E1 [3] was inactive. Besides, in the data set on MC3T3-E1 [4] (filed as activator), the result was Active.

Consider `CCCCCCCC(=O)[C@@H](C)C(=O)N(C)[C@H](Cc1ccc(OC)cc1)C(=O)N(C)[C@H](C(N)=O)C(C)C`, for which the outcome in the data set on MC3T3-E1 [1] (filed as activator) and in the data set on MC3T3-E1 [2] was Active. Further, the Activity entry in the data set with MC3T3-E1 [5] is “Non-Toxic”.

`CCCCCCCC(=O)[C@H](C)C(=O)N(C)[C@H](Cc1ccc(OC)cc1)C(=O)N(C)[C@H](C(N)=O)C(C)C`: the result in the data set on MC3T3-E1 [1] (filed as activator) and in the data set with MC3T3-E1 [2] was Active. The Activity result in the data set on MC3T3-E1 [5] was “Non-Toxic”.

`CCCCCCCC(=O)[C@@H](C)C(=O)N(C)[C@H](Cc1ccc(OC)cc1)C(=O)N(C)[C@@H](C)C(N)=O`: the outcome in the data set on MC3T3-E1 [6], in the data set with MC3T3-E1 [1] (filed as activator) and with MC3T3-E1 [7] was Active. Further, the outcome in the data set with MC3T3-E1 [3] was inactive.

Consider `CCCCCCCCCC(=O)[C@@H](C)C(=O)N(C)[C@H](Cc1ccc(OC)cc1)C(=O)N(C)[C@H](C(N)=O)C(C)C`, for which, in the data set with MC3T3-E1 [6], the result was inactive. The result with MC3T3-E1 [8] was Active. In addition, the Activity entry with MC3T3-E1 [9] is on record as “Toxic”.

Turning to `CCCCCCCC(=O)C(C)(C)C(=O)N(C)[C@H](Cc1ccc(OC)cc1)C(=O)N(C)[C@H](C(N)=O)C(C)C`, the outcome in the data set with MC3T3-E1 [1] (filed as activator) was Active. Further, the result in the data set with MC3T3-E1 [2] was inactive.

As to `CCCCCCCC(=O)[C@@H](C)C(=O)N(C)[C@H](Cc1cc(Cl)c(OC)c(Cl)c1)C(=O)N(C)[C@H](C(N)=O)C(C)C`, the result in the data set on MC3T3-E1 [3] and in the data set on MC3T3-E1 [4] was inactive. Moreover, in the data set with MC3T3-E1 [9], the Activity entry was “Toxic”.

In the case of `CCCC(=O)[C@@H](C)C(=O)N(C)[C@H](Cc1ccc(OC)cc1)C(=O)N(C)[C@H](C(N)=O)C(C)C`, the result in the data set on MC3T3-E1 [3] was inactive. Also, the result with MC3T3-E1 [4] (filed as activator) was Active.

Consider `CCCCCCC[C@@H](O)[C@H](C)C(=O)N(C)[C@H](Cc1ccc(OC)cc1)C(=O)N(C)[C@H](C(N)=O)C(C)C`, for which the outcome in the data set with MC3T3-E1 [3] and in the data set with MC3T3-E1 [4] (filed as activator) was Active.

Consider `CCCCCCCCCC(=O)N(C)[C@H](Cc1ccc(OC)cc1)C(=O)N(C)[C@H](C(N)=O)C(C)C`, for which the result with MC3T3-E1 [1] (filed as activator) and with MC3T3-E1 [2] was Active. Further, in the data set on MC3T3-E1 [9], the Activity entry was “Toxic”.

As to `CCCCCCCC[C@@H](C)C(=O)N(C)[C@H](Cc1ccc(OC)cc1)C(=O)N(C)[C@H](C(N)=O)C(C)C`, the outcome in the data set on MC3T3-E1 [1] and with MC3T3-E1 [2] was inactive. Besides, in the data set on MC3T3-E1 [3], the result was Active.

In the case of `CCCCCC(=O)[C@@H](C)C(=O)N(C)[C@H](Cc1ccc(OC)cc1)C(=O)N(C)[C@H](C(N)=O)C(C)C`, the outcome with MC3T3-E1 [3] was inactive. Besides, the result in the data set on MC3T3-E1 [4] (filed as activator) was Active.

As to `CCCCCCCC[C@H](C)C(=O)N(C)[C@H](Cc1ccc(OC)cc1)C(=O)N(C)[C@H](C(N)=O)C(C)C`, the result in the data set with MC3T3-E1 [1] and in the data set on MC3T3-E1 [2] was inactive. In addition, in the data set with MC3T3-E1 [3], the result was Active.

On to `CCCCCCCC(=O)CC(=O)N(C)[C@H](Cc1ccc(OC)cc1)C(=O)N(C)[C@H](C(N)=O)C(C)C`, for which the outcome with MC3T3-E1 [1] (filed as activator) was Active. The result in the data set with MC3T3-E1 [2] was inactive.
